Experimental data as given in ChEMBL document CHEMBL3297664, “Identification and characterization of a new reversible MAGL inhibitor” (Bioorg Med Chem, 2014).

Columns and labels:
MCF7 = test: Cytotoxicity against human MCF7 cells assessed as growth inhibition after 96 hrs; settings: MCF7, 96 h
[1] = Cytotoxicity against human OVCAR3 cells assessed as growth inhibition after 96 hrs; settings: OVCAR-3, 96 h
MDA-MB-231 = test: Cytotoxicity against human MDA-MB-231 cells assessed as growth inhibition after 96 hrs; settings: MDA-MB-231, 96 h
[2] = Cytotoxicity against human COV318 cells assessed as growth inhibition after 96 hrs; settings: COV318, 96 h
[3] = Cytotoxicity against human MSC assessed as growth inhibition after 96 hrs
Monoglyceride lipase [4] = target: T1, Monoglyceride lipase (Homo sapiens, UniProt Q99685); test: Inhibition of human recombinant MAGL using 4-nitrophenylacetate as substrate after 30 mins
T1 sequence (Q99685 whole entry): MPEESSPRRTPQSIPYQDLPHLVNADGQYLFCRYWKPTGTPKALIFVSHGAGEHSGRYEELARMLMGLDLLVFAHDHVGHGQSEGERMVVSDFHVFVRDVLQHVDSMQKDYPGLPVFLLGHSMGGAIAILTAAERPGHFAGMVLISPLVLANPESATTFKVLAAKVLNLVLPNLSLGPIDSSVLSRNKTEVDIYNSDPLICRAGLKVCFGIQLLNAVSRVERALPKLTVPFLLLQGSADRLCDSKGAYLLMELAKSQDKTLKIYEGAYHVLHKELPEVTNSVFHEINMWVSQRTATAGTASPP

Monoglyceride lipase [5] = target: T1, Monoglyceride lipase; test: Inhibition of human recombinant MAGL using 4-nitrophenylacetate as substrate preincubated for 30 mins followed by substrate addition
Monoglyceride lipase [6] = target: T1, Monoglyceride lipase; test: Inhibition of human recombinant MAGL using 4-nitrophenylacetate as substrate
Monoglyceride lipase [7] = target: T1, Monoglyceride lipase; test: Inhibition of human recombinant MAGL using 4-nitrophenylacetate as substrate preincubated for 60 mins followed by substrate addition

## COc1ccc(C(=O)N2CCC(C(=O)c3ccc(Cl)cc3)CC2)cc1
MCF7
  IC50: 19.9 µM
[1]
  IC50: 50.7 µM
MDA-MB-231
  IC50: 75.3 µM
[2]
  IC50: 73.9 µM
[3]
  IC50: > 300 µM

## CCOc1ccc(N2CC(C(=O)Nc3ccc(C(C)=O)cc3)CC2=O)cc1 (stereo not given)
Monoglyceride lipase [4]
  IC50: > 500 µM

## O=C(c1ccc([N+](=O)[O-])cc1)c1ccc2c(c1)C(=O)N(c1cccnc1)C2=O
Monoglyceride lipase [4]
  IC50: > 500 µM

## COc1ccc(CNC(=O)c2ccc3nc(-c4ccoc4)c(-c4ccoc4)nc3c2)cc1
Monoglyceride lipase [4]
  IC50: > 500 µM

## COc1nn(-c2ccc(NC(=O)OCc3ccccc3)c(C)c2)c(=O)o1
Monoglyceride lipase [5]
  IC50: 26 nM
Monoglyceride lipase [6]
  IC50: 146 nM
MCF7
  IC50: 4.2 µM
[1]
  IC50: > 79.8 µM
Monoglyceride lipase [7]
  IC50: 9 nM
MDA-MB-231
  IC50: 46 µM
[2]
  IC50: 107 µM
[3]
  IC50: 276 µM

## COc1ccc(-c2nnc(SCC(=O)N3CCN(c4ccc(OC)cc4)CC3)o2)cc1
Monoglyceride lipase [4]
  IC50: > 500 µM

## COc1ccc(-c2nnn(CC(=O)N3CCN(c4ccc(F)cc4)CC3)n2)cc1
Monoglyceride lipase [4]
  IC50: > 500 µM

## O=C(Cc1ccccc1)N1CCC(C(=O)N2CCN(c3ccc(F)cc3)CC2)CC1
Monoglyceride lipase [4]
  IC50: > 500 µM

## O=C(Cn1nnc(-c2ccc(N3CCOCC3)cc2)n1)N1CCN(c2ccccc2)CC1
Monoglyceride lipase [4]
  IC50: > 500 µM
